Test results from patent US20090326441A1, “Ultrasonic Enhanced Microneedles” (AGENCY FOR SCIENCE ,TECHNOLOGY AND RESEARCH, priority 2006, published 2009).

Test: Penetration of calcein through pig skin in Franz cell test device
Type: in vitro ADME
Conditions: calcein solution 1 mmol, 0.523 mg/ml, receiving liquid PBS, 37° C., FIG. 9
Procedure: An injection device according to the present invention was constructed as described above. Testing was performed using calcein on pig skin, using the apparatus in FIG. 8. The graph of FIG. 9 presents the results of testing in three different situations: without enhancers, with hollow microneedles and using the method of the present invention, using microneedles with ultrasonic enhancement. With reference to FIG. 8, test device 10 comprises injection device 20 which has been applied to skin sample 30. Pig skin sample 30 communicates with a receiving liquid in receiving chamber 40. Arm 50 is provided to chamber 40 for inserting or withdrawing the receiving liquid. Chamber 40 is located in Franz cell 60, which comprises a water bath 65 and inlet and outlet ports 70 and 75 respectively for maintaining the receiving liquid at a constant temperature. Sample chamber 80 is provided for holding a test sample. […]
In order to conduct the test using test device 10, calcein solution (1 mmol, 0.523 mg/ml) was placed in chamber 80 so as to supply the solution to device 20, and a receiving liquid (PBS: phosphate buffered saline) was loaded into chamber 40. […] The concentration of calcein in the receiving liquid was then monitored by withdrawing aliquots from arm 50 and analysing them. […]

transport of calcein across the skin sample (microneedles and ultrasound (20 kHz, 0.5 Wcm^−2), compared with microneedles alone): enhanced
transport of calcein across the skin sample (microneedles, no ultrasound, compared with no microneedles (without enhancers)): improvement
Compound: O=C(O)CN(CC(=O)O)Cc1cc2c(cc1O)Oc1cc(O)c(CN(CC(=O)O)CC(=O)O)cc1C21OC(=O)c2ccccc21 [calcein]
